One test addresses T1, rTRPM8 (Rattus norvegicus, UniProt Q8R455).
T1 construct: expressed in transfected cells
Nature of the test: Patch-Clamp electrophysiology on single HEK293 cells expressing rat TRPM8. In kind it is cell-based. To be noted: activation by 100 µM menthol; holding voltage −60 mV. An excerpt:
A recent research study using Patch-Clamp, among other techniques, established that menthol occupies a cavity within the TRPM8 S1–S4 transmembrane helix, with the OH group forming an H-bond with the δ-NH of R842 residue, and Van der Waals interactions among the methyl groups of the ^iPr moiety and residues I846 and L843 [41].
This is evident by a negligible current at negative potentials and a linear intensification of the ohmic current at positive voltages. When applying compound 34 at a concentration of […], a noticeable reduction in menthol-induced activity at depolarizing voltages was observed (indicated by the red line) compared to menthol alone. Dose–response relationships for both tested compounds were established through triplicate experiments at various concentrations, applying a holding voltage of −60 mV (as shown in Figure 2B).
(§1) Calcium fluorometry, Patch-Clamp assays and in vivo experiments were performed using the methodology previously described for TRPM8 [35] or TRPM3 [61]. In the Patch -Clamp experiments, the intracellular pipette solution contained (in mM) 140 KCl, 5 EGTA, and 10 mM HEPES, adjusted to pH 7.2 with KOH, and the extracellular solution contained (in mM) 140 NaCl, 2 CaCl2, 1 MgCl2, 10 D-glucose and 10 HEPES, adjusted to pH 7.4 with NaOH. Selectivity against TRPV1, TRPV3, TRPA1 and ASIC3 was subcontracted to Eurofins-CEREP or Eurofins-PANLABS (see ref. [35] for more details).
Figure 2 Compound 34 blocks TRPM8-mediated responses evoked by menthol in rTRPM8-expressing HEK293 cells. (A) IV curves obtained after exposure to vehicle solution (green trace), 100 µM menthol (blue trace) and 100 µM menthol + 10 µM 34 (red trace). Peak current data were expressed as pA/pF (to allow comparison among different size cells). Each point is the mean ± SEM of n = 15. (B) Concentration/response curves for rTRPM8 current blockade by 34 at a holding voltage of −60 mV. […]

Test [1] has as its target T2, hTRPV1 (Homo sapiens, UniProt Q8NER1).
T2 construct: Eurofins-CEREP or Eurofins-PANLABS (contract assay)
Kind of test: TRPV1 channel Ca2+ microfluorimetry (capsaicin 30 nM). In kind it is cell-based. To be noted: 10 μM; agonist capsaicin 30 nM.
From the text: (§2) The effects of compound 34 have been evaluated on different ion channels and receptors implicated in pain-related processes to assess the selectivity for TRPM8 channels. First, some TRP channels that play a role in temperature integration and nociception were selected, including hTRPV1, hTRPV3, hTRPA1 and TRPM3. Additionally, the evaluation encompassed the hASIC3 channel with widespread distribution within the peripheral nervous system and contributions to the excitability of primary sensory neurons. In each instance, the compound was subjected to evaluation at a consistent concentration of 10 µM.
as §1

The next test addresses T3, hTRPV3 (Homo sapiens, UniProt Q8NET8).
T3 construct: Eurofins-CEREP or Eurofins-PANLABS (contract assay)
T3 sequence (Q8NET8 1-790): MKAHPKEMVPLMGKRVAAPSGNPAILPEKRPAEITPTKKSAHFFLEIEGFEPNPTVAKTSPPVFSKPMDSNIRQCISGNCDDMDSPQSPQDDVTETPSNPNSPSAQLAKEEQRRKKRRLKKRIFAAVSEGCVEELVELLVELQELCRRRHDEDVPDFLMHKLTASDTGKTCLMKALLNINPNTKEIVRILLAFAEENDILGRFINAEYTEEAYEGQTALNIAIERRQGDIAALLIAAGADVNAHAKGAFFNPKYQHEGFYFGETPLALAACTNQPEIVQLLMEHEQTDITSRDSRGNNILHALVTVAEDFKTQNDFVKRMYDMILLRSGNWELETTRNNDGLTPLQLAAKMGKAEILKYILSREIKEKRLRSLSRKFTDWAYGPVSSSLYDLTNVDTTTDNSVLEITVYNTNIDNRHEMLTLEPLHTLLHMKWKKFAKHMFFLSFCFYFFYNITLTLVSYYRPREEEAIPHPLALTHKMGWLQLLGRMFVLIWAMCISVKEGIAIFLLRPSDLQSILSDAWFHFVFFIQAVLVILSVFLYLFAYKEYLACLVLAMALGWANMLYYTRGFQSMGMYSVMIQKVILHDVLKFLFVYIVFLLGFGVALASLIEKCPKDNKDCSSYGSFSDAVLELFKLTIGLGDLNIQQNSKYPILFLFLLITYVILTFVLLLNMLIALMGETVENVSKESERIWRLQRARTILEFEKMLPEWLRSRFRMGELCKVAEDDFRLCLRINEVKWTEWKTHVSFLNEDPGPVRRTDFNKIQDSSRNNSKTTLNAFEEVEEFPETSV
Kind of test: TRPV3 channel Ca2+ microfluorimetry (2-APB 30 μM). To be noted: agonist 2-APB 30 μM. In kind it is cell-based.
From the text: as §2, §1

Another test concerns the target T4, hTRPA1 (Homo sapiens, UniProt O75762).
T4 construct: Eurofins-CEREP or Eurofins-PANLABS (contract assay)
Kind of test: TRPA1 channel Ca2+ microfluorimetry (allylisothiocyanate 10 μM). Type of test: cell-based. To be noted: agonist allylisothiocyanate 10 μM.
From the text: as §2, §1

The target of a further test is T5, hASIC3 channel (Homo sapiens, UniProt Q9UHC3).
T5 construct: Eurofins-CEREP or Eurofins-PANLABS (contract assay)
T5 sequence (Q9UHC3 1-531): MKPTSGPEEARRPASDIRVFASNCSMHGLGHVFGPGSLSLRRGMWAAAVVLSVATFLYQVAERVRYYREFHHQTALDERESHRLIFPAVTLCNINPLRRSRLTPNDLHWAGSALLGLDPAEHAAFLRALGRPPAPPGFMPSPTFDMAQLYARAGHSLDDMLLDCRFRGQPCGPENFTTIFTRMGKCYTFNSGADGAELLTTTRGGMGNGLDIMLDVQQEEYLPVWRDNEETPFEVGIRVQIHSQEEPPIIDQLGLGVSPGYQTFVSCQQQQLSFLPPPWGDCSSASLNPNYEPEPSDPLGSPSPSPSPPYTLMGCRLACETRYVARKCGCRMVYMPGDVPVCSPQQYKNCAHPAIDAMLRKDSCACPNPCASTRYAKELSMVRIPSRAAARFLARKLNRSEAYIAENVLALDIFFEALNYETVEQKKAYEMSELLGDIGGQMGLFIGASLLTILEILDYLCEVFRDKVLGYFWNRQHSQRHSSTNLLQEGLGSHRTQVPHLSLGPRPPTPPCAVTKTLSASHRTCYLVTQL
Kind of test: ASIC3 channel functional assay (buffer pH 5.5). In kind it is cell-based.
From the text: as §2, §1

In another test the target is hCGRPR (Homo sapiens, UniProt O60894+Q16602). Nature of the test: Radioligand binding at CGRP receptor. To be noted: radioligand [125]hGCRPα. An excerpt: (§3) Furthermore, the investigation extended to measuring the binding affinity of compound 34 to calcitonin gene-related peptide hCGRPR, cannabinoid hCB2 and muscarinic hM3 receptors, which are all relevant to different pain conditions.

For a further test, the target named is hCB2 (Homo sapiens, UniProt P34972). Nature of the test: Radioligand binding at cannabinoid CB2 receptor. To be noted: radioligand [3H]WIN 55212-2.
From the text: as §3

A further test concerns the target hM3 (Homo sapiens, UniProt P20309). Kind of test: Radioligand binding at muscarinic M3 receptor. To be noted: radioligand [3H]4-DMAP.
From the text: as §3

Test [2] has as its target T2, hTRPV1. Details: method as in PMID 35269831. To be noted: model compound; cited from earlier work.

The values that follow come from article PMC10573892, “β-Lactam TRPM8 Antagonists Derived from Phe-Phenylalaninol Conjugates: Structure–Activity Relationships and Antiallodynic Activity” (International Journal of Molecular Sciences, 2023).

T2 sequence (Q8NER1 whole entry): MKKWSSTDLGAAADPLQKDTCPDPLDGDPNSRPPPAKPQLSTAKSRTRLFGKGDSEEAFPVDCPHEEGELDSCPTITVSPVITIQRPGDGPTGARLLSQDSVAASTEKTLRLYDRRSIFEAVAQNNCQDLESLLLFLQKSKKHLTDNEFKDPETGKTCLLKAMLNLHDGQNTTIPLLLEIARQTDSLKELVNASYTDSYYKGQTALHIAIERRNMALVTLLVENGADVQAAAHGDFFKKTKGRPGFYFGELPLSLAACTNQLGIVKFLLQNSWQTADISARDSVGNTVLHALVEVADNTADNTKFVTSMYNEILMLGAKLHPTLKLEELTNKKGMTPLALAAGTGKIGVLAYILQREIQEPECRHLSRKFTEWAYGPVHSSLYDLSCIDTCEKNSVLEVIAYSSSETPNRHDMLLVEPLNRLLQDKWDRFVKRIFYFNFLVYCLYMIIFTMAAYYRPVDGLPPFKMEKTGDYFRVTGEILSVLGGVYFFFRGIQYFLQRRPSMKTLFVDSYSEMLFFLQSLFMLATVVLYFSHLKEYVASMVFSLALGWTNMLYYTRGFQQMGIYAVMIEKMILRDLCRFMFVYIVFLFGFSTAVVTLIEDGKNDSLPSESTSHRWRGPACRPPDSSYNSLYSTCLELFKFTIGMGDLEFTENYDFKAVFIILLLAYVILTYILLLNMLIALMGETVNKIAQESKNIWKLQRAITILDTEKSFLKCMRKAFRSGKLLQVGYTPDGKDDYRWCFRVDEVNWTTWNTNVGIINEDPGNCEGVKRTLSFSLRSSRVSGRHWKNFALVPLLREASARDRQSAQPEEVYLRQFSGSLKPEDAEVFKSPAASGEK
Sequence of hCB2 (P34972 whole entry): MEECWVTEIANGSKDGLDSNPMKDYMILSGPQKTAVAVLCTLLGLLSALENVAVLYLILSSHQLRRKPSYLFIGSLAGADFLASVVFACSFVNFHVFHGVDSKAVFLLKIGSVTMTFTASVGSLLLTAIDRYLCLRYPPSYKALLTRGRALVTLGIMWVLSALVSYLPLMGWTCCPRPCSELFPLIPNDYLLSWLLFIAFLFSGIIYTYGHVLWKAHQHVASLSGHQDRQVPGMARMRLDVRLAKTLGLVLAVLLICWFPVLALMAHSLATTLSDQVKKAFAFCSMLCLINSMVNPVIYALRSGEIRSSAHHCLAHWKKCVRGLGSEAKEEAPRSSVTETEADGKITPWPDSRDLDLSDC
Sequence of hM3 (P20309 whole entry): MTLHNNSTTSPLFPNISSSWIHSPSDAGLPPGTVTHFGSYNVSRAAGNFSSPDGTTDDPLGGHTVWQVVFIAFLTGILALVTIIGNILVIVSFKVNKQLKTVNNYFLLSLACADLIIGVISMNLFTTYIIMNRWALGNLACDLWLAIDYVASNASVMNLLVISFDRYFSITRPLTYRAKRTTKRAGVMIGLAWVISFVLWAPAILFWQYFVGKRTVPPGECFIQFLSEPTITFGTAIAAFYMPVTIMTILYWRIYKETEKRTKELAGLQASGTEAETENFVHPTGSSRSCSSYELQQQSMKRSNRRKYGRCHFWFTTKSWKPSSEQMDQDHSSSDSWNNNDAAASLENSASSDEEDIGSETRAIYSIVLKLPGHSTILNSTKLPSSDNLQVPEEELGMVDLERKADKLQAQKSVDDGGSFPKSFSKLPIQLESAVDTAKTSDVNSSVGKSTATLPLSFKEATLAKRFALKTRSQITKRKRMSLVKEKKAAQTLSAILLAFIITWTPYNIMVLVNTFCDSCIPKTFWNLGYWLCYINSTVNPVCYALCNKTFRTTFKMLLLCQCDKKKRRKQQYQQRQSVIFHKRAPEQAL
T4 sequence (O75762 whole entry): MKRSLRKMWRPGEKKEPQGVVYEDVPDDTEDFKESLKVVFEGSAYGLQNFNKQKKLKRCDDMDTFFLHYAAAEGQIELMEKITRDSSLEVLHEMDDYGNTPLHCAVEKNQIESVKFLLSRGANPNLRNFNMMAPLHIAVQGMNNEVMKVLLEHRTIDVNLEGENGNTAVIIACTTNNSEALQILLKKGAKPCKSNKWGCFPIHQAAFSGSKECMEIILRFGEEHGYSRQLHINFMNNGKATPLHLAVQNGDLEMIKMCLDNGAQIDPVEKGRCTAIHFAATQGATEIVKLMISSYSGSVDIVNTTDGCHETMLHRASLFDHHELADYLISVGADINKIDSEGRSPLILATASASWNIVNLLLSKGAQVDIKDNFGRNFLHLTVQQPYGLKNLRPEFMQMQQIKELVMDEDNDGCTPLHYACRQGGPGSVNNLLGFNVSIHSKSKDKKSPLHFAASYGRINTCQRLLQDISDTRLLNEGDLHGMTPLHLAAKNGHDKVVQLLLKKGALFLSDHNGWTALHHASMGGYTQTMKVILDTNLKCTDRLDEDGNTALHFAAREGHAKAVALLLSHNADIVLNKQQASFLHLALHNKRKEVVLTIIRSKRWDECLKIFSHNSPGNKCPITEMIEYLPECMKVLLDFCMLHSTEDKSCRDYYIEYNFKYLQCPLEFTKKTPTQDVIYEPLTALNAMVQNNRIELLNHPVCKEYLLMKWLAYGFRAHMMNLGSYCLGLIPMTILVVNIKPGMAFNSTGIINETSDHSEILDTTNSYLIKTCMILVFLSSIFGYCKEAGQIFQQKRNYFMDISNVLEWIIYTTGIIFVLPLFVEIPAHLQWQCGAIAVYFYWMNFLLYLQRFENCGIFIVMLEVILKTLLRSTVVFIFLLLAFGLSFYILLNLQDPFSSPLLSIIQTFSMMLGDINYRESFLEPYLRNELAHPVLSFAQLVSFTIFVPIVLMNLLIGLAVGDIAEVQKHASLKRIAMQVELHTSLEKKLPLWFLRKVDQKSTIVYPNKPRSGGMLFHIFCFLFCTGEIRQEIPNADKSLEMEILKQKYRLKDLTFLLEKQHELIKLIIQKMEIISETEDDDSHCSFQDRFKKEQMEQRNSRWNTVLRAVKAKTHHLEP
T1 sequence (Q8R455 whole entry): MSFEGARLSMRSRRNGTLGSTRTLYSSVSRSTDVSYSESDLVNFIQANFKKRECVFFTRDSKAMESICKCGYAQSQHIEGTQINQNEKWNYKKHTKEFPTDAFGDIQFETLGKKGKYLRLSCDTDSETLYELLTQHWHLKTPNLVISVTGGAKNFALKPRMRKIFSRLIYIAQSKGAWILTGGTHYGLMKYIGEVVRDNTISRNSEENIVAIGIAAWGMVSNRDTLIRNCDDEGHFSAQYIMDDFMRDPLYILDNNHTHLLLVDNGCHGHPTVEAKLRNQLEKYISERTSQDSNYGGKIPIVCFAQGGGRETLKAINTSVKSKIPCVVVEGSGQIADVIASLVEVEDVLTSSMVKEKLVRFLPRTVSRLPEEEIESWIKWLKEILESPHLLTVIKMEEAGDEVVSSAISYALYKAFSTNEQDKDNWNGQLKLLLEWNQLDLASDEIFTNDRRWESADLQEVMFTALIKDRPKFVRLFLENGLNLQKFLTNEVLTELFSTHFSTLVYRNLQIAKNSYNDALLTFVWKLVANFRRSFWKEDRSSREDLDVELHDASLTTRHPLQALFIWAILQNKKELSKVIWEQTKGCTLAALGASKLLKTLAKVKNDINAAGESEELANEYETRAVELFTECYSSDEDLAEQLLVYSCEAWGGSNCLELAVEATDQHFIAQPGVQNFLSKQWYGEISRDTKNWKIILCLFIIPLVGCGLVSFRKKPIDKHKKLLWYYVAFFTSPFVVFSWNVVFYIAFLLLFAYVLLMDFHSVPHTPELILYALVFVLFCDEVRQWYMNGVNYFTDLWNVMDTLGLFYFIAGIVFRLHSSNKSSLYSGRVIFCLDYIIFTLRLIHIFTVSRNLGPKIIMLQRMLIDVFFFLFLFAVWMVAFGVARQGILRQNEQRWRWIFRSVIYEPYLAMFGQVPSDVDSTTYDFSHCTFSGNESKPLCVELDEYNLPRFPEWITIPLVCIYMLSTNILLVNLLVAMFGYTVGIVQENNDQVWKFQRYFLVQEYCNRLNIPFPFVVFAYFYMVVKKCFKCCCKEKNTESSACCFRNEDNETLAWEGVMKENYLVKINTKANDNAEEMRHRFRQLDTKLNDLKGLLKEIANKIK
Sequence of hCGRPR (Q16602 23-461): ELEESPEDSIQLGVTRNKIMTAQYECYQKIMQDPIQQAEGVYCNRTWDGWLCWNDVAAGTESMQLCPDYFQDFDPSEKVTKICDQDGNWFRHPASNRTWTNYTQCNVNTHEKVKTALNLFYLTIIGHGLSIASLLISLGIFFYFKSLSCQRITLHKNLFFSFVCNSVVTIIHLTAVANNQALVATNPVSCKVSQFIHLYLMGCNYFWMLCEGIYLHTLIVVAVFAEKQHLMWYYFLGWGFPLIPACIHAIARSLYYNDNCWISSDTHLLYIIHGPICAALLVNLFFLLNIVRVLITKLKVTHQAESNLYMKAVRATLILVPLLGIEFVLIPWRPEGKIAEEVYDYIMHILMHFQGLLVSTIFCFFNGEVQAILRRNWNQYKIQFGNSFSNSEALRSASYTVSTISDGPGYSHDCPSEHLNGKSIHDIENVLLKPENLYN
Sequence of hCGRPR (O60894 27-148): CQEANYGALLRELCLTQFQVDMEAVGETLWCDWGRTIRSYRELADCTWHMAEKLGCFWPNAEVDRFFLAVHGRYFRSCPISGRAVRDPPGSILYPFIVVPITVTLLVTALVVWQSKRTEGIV

At rTRPM8, `C[C@@H]1C(=O)N(C[C@H](Cc2ccccc2)N(Cc2ccccc2)Cc2ccccc2)[C@]1(Cc1ccccc1)C(=O)OC(C)(C)C` [Compound 1] came in with a concentration for half-maximal inhibition (IC50) of 600 ± 1660 nM. Also, the inhibition at 10 µM at hTRPV1 [1] is 19.4 ± 1.7%; at hTRPV3, -6.3 ± 5.9%; on hTRPA1, 4.2 ± 1.1%; against hASIC3 channel it was 6 ± 0.9%; at hCGRPR, -1 ± 4.3%; at hCB2 it was 7.3 ± 0.3%. Also, the inhibition at 10 µM at hM3 was -4.1 ± 3.1%. Also, the “activation on the TRPV1 channel” value at hTRPV1 [2] is given as “about 30%”.

One may read the IC50 as the point on the concentration scale where inhibition reaches its midpoint. Low readings indicate inhibition by little substance, high ones a need for much substance. Usually inhibition stands for the relative decrease from the control value, in per cent.
